Source: ChEMBL document CHEMBL5620422, “Design, synthesis, and biological evaluation of a series of new anthraquinone derivatives as anti-ZIKV agents” (Eur J Med Chem, 2023)
Active and inactive are the calls of the source. The rule behind the calls is not given here.

Legend:
[1] = Cytotoxicity against human JEG-3 cells assessed as reduction in cell viability incubated for 48 hrs by MTT assay; format: toxicity, cell-based
Zika virus [2] = test: Antiviral activity against ZIKV ZG-01 infected in Vero cells preincubated for 1 hr followed by replacement with fresh media containing compound for 48 hrs by crystal violet staining based plaque assay; format: functional
Zika virus [3] = test: Antiviral activity against ZIKV ZG-01 infected in JEG-3 cells assessed as reduction in viral envelope protein expression at 5 uM by immunofluorescence assay; format: functional, organism-based
Zika virus [4] = test: Antiviral activity against ZIKV ZG-01 infected in human JEG-3 cells assessed as reduction in IFNgamma expression at 1 to 5 uM by RT-PCR analysis; format: functional, organism-based; details: dose 1-5 µM
HEK293T = test: Inhibition of ZIKV RNA polymerase NS5 expressed in HEK293T cells co-transfected with Gluc-reporter gene at 20 uM incubated for 24 hrs by Dual-glo luminescence assay; format: cell-based; details: Zika virus
Zika virus [5] = test: Antiviral activity against ZIKV ZG-01 infected in SNB-19 cells assessed as reduction in viral envelope protein level at 10 uM after 18 to 48 hrs by Western blot assay; format: functional, organism-based; details: time 18-48 hrs
Zika virus [6] = test: Antiviral activity against ZIKV ZG-01 infected in human SNB-19 cells assessed as reduction in TNFalpha expression at 1 to 5 uM by RT-PCR analysis; format: functional, organism-based; details: dose 1-5 µM
Zika virus [7] = test: Antiviral activity against ZIKV ZG-01 infected in human JEG-3 cells assessed as reduction in GSDME cleavage by Western blot analysis; format: functional, organism-based; details: dose 1-20 µM
Zika virus [8] = test: Antiviral activity against ZIKV ZG-01 infected in human SNB-19 cells assessed as reduction in cell pyroptosis; format: functional, organism-based
Zika virus [9] = test: Antiviral activity against ZIKV ZG-01 infected in human SNB-19 cells assessed as reduction in LDH release incubated for 36 hrs; format: functional, organism-based; details: dose 1-5 µM
Zika virus [10] = test: Antiviral activity against ZIKV ZG-01 infected in Ifnar1 knockout C57BL/6 mouse assessed as reduction in weight loss at 20 mg/kg, iv administered daily for 7 days and measured upto 12 dpi; format: functional, organism-based; details: time <= 12.0 day
NS5 = NS5 (Zika virus, UniProt A0A143MHK7); test: Binding affinity to ZIKV RdRP by SPR assay
JEG-3 [11] = test: Antiinflammatory activity in human JEG-3 cells assessed as reduction in IL-6 expression by RT-PCR analysis; format: functional, cell-based
Zika virus [12] = test: Antiviral activity against ZIKV ZG-01 infected in human JEG-3 cells assessed as reduction in TNFalpha release at 1 to 5 uM by ELISA; format: functional, organism-based; details: dose 1-5 µM
Zika virus [13] = test: Antiviral activity against ZIKV ZG-01 infected in human JEG-3 cells assessed as reduction in IL-1beta expression at 1 to 5 uM by RT-PCR analysis; format: functional, organism-based; details: dose 1-5 µM
Zika virus [14] = test: Antiviral activity against ZIKV ZG-01 infected in Ifnar1 knockout C57BL/6 mouse assessed as increase in animal survival at 20 mg/kg, iv administered daily for 7 days; format: functional, organism-based; details: time 7.0 day
JEG-3 [15] = test: Antiinflammatory activity in human JEG-3 cells assessed as reduction in TNFalpha expression by RT-PCR analysis; format: functional, cell-based
Zika virus [16] = test: Antiviral activity against ZIKV ZG-01 infected in human JEG-3 cells assessed as reduction in TNFalpha expression at 1 to 5 uM by RT-PCR analysis; format: functional, organism-based; details: dose 1-5 µM
Zika virus [17] = test: Antiviral activity against ZIKV ZG-01 infected in SNB-19 cells preincubated for 1 hr followed by replacement with fresh media containing compound for 48 hrs by crystal violet staining based plaque assay; format: functional
Zika virus [18] = test: Antiviral activity against ZIKV ZG-01 infected in human JEG-3 cells assessed as reduction in GSDMD cleavage by Western blot analysis; format: functional, organism-based; details: dose 1-20 µM
Zika virus [19] = test: Antiviral activity against ZIKV ZG-01 infected in JEG-3 cells assessed as reduction in viral replication at 20 uM preincubated for 1 hr followed by replacement with fresh media containing compound for 48 hrs by RT-PCR analysis; format: functional; parameters: scale not given: the % may be the effect or the level left; details: time 49 hrs
Zika virus [20] = test: Antiviral activity against ZIKV ZG-01 infected in SNB-19 cells assessed as reduction in viral envelope protein expression at 5 uM by immunofluorescence assay; format: functional, organism-based
SNB-19 = test: Antiinflammatory activity in human SNB-19 cells assessed as reduction in IFNgamma expression by RT-PCR analysis; format: functional, cell-based
Zika virus [21] = test: Antiviral activity against ZIKV ZG-01 infected in Ifnar1 knockout C57BL/6 mouse assessed as reduction in brain viral RNA at 20 mg/kg, iv administered daily for 7 days and measured upto 12 dpi by RT-qPCR analysis; format: functional, organism-based; details: time <= 12.0 day
Zika virus [22] = test: Antiviral activity against ZIKV ZG-01 infected in human SNB-19 cells assessed as reduction in IL-1beta release at 1 to 5 uM by ELISA; format: functional, organism-based; details: dose 1-5 µM
Zika virus [23] = test: Antiviral activity against ZIKV ZG-01 infected in human JEG-3 cells assessed as reduction in LDH release incubated for 36 hrs; format: functional, organism-based; details: dose 1-5 µM
Zika virus [24] = test: Antiviral activity against ZIKV ZG-01 infected in Vero cells assessed as reduction in viral replication at 20 uM preincubated for 1 hr followed by replacement with fresh media containing compound for 48 hrs by RT-PCR analysis; format: functional; parameters: scale not given: the % may be the effect or the level left; details: time 49 hrs
Zika virus [25] = test: Antiviral activity against ZIKV ZG-01 infected in human JEG-3 cells assessed as reduction in IL-1beta release at 1 to 5 uM by ELISA; format: functional, organism-based; details: dose 1-5 µM
[26] = Toxicity in Ifnar1 knockout C57BL/6 mouse assessed as corneal opacities at 60 mg/kg administered for 7 days; format: organism-based; details: in vivo, 168 h, time 7 day

NS5, sequence (A0A143MHK7 whole entry): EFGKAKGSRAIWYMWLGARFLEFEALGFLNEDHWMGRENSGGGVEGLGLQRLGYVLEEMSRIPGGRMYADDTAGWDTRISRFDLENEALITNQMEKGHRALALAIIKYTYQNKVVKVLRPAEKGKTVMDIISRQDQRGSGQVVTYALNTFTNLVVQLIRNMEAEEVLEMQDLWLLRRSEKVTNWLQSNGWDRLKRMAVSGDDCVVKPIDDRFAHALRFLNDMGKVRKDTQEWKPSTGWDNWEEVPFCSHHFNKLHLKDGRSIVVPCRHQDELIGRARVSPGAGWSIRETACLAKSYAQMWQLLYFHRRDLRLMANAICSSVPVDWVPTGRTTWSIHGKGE

C[C@]1(O)CC2=C(C[C@@]1(C)O)C(=O)c1c(O)cc(N3CCC(c4ccccc4)CC3)c(O)c1C2=O
CC50 at 48 h [1]: 54.7 µM | EC90 (Zika virus [2]; ZG-01, Vero, time 49 hrs): 6.4 µM | Activity (Zika virus [2]; time 49.0 hrs): Dose-Dependent Effect | Activity (Zika virus [3]): Active | Activity (Zika virus [4]): Active | inhibition (HEK293T): Dose-Dependent Effect | Activity (Zika virus [5]): Active | Activity (Zika virus [6]): Active | Activity (Zika virus [7]): Dose-Dependent Effect | Activity (Zika virus [8]): Active | Activity (Zika virus [9]): Dose-Dependent Effect | Activity (Zika virus [10]): Active | Kd (NS5): 10.4 µM | Activity (JEG-3 [11]): inactive | Activity (Zika virus [12]): Active | Activity (Zika virus [13]): Active | Activity (Zika virus [14]): Active | Activity (JEG-3 [15]): inactive | Activity (Zika virus [16]): Active | EC90 (Zika virus [17]; ZG-01, SNB-19, time 49 hrs): 6.4 µM | Activity (Zika virus [17]; time 49.0 hrs): Dose-Dependent Effect | Activity (Zika virus [18]): Dose-Dependent Effect | Activity (Zika virus [19]): 100% | Activity (Zika virus [20]): Active | Activity (SNB-19): inactive | Activity (Zika virus [21]): Active | Activity (Zika virus [22]): Active | Activity (Zika virus [23]): Dose-Dependent Effect | Activity (Zika virus [24]): 100% | Activity (Zika virus [25]): Active | Activity [26]: Non-Toxic
